Measured values reported in PMC12040169 (PLOS Biology, 2025).

Assay: in vitro
Conditions: human, hela cells, % viability

Row | SMILES | viability at 28.5 h, 10 µM [%] | viability at 28.5 h, 10 µM (bulk resorufin, single well) [%]
1 | O=C(CN(C(=O)CNC(=O)c1cccs1)c1cccc(C(F)(F)F)c1)NC1CCCCC1 [CBK084697] | 94.5 | –
2 | O=C(NCC(=O)N(c1cccc(C(F)(F)F)c1)C(C(=O)NCc1ccco1)c1ccccc1F)c1ccco1 (stereo not drawn) [CBK084740] | 96 | –
3 | COc1ccc(Cn2nnnc2C(CC(C)C)N2CCC(C(N)=O)CC2)cc1 (stereo not drawn) [CBK084783] | 90 | –
4 | O=C(NC1CCCCC1)NC1CCN(Cc2nnnn2Cc2ccco2)CC1 [CBK085007] | 100 | –
5 | CC(=O)Nc1ccc(NC2SC(=O)N(c3ccccc3)C2=O)cc1 (stereo not drawn) [CBK085110] | 88.4 | –
6 | Cc1cc(NS(=O)(=O)c2ccc(NC(=O)C(c3ccccc3)c3ccccc3)cc2)no1 [CBK085112] | 94 | –
7 | O=C(NC(Cc1c[nH]c2ccccc12)C(=O)NC1CCCCC1)OCc1ccccc1 (stereo not drawn) [CBK085144] | 89 | –
8 | CCc1nnc(NS(=O)(=O)c2ccc(NCc3ccccc3O)cc2)s1 [CBK085149] | 113 | –
9 | Cc1[nH]n(-c2nc3ccccc3o2)c(=O)c1Cc1c(Cl)cccc1Cl [CBK085382] | 96.5 | –
10 | Fc1ccc2[nH]c3c(c2c1)CCNC31CCN(CCOc2ccccc2)C1 (stereo not drawn) [CBK085404T] | 98 | –
11 | Brc1cn2ccnc2c(N2CCCC2)n1 [CBK085449] | 117 | –
12 | CCOC(=O)N1CCC2(CC1)Oc1ccc(-c3cccc4ncccc34)cc1O2 [CBK085454] | – | 99.8
13 | Cc1cc(COc2cc(N3CCCNCC3)ncn2)no1 [CBK085462] | 95.4 | –
14 | c1nc(OCCN2CCOCC2)cc(N2CCCNCC2)n1 [CBK085466] | 86.2 | –
15 | c1ccc2c(c1)OCC(COc1nccc(N3CCCNCC3)n1)O2 (stereo not drawn) [CBK085471] | 89.8 | –
16 | Cc1nc2ccc(NC(=O)Nc3ccnc4cccnc34)cc2o1 [CBK085498] | 90 | –
17 | c1ccc(-c2ccc3c(c2)OC2(CCNCC2)O3)cc1 [CBK085501] | – | 103
18 | CS(=O)(=O)Nc1ccc2cc(-c3cccc(C(F)(F)F)c3)cnc2n1 [CBK085671] | 94.1 | –
19 | COc1ccc(-c2nc(NS(C)(=O)=O)cc3cccnc23)cc1C [CBK085677] | 85.5 | –
20 | CS(=O)(=O)Nc1cc2cccnc2nc1-c1ccccc1 [CBK085689] | 104 | –
21 | COc1cc(-c2nc3ncccc3cc2NS(C)(=O)=O)cc(OC)c1OC [CBK085697] | 92.7 | –
22 | Nc1cc2ccccc2c(-c2ccncc2)n1 [CBK085708] | 99.1 | –
23 | Nc1cc2ccccc2c(-c2cc(F)cc(F)c2)n1 [CBK085711] | 97 | –
24 | Nc1cc2ccccc2c(-c2ccc(OC(F)(F)F)cc2)n1 [CBK085725] | 99.4 | –

Row | SMILES | viability at 28.5 h, 10 µM [%] | viability at 28.5 h, 10 µM (bulk resorufin, single well) [%]
25 | CSc1ccc(-c2nc(NC(=O)C(C)C)cc3ccccc23)cc1 [CBK085735] | 95.5 | –
26 | CC(C)C(=O)Nc1cc2ccccc2c(-c2cccc(C(F)(F)F)c2)n1 [CBK085738] | 95.6 | –
27 | CS(=O)(=O)Nc1cc2ccccc2c(-c2ccncc2)n1 [CBK085746] | 92 | –
28 | CS(=O)(=O)Nc1cc2ccccc2c(-c2ccsc2)n1 [CBK085748] | 89.7 | –
29 | CS(=O)(=O)Nc1cc2ccccc2c(-c2cccc(C(F)(F)F)c2)n1 [CBK085754] | 92.9 | –
30 | CS(=O)(=O)Nc1cc2ccccc2c(-c2ccc(OC(F)(F)F)cc2)n1 [CBK085757] | 121 | –
31 | CCNc1cc2ccccc2c(-c2cccc(C(F)(F)F)c2)n1 [CBK085772] | 101 | –
32 | CNC(=O)CCCc1[nH]nc(O)c1Cc1c(Cl)cccc1Cl [CBK085827] | 89.4 | –
33 | Nc1cccc(Sc2ncccn2)c1 [CBK085844] | 93.4 | –
34 | CC(=O)Nc1ccc(Sc2ccccn2)cc1 [CBK085853] | 101 | –
35 | COc1nc(SC)nc2[nH]ccc12 [CBK085861] | 95 | –
36 | Cc1nc2ccc(Br)cc2c(=O)n1Cc1cccs1 [CBK085890] | 89.7 | –
37 | N#CCC(=O)Nc1ccc(F)c(Cl)c1 [CBK085905] | 95.4 | –
38 | CCCCN1C(=O)N(c2nnc(C(C)(C)C)s2)C(=O)C1c1ccc(Cl)c(Cl)c1 (stereo not drawn) [CBK085921] | 114 | –
39 | Cc1ccc(-c2nc3ccccc3[nH]2)cc1 [CBK085933] | 89.9 | –
40 | Fc1c(CN2CCOCC2)cccc1CN1CCOCC1 [CBK085967] | 97.6 | –
41 | O=C(Nc1ccccc1F)c1cc(Cl)sc1Cl [CBK085969] | 93.3 | –
42 | CC(=O)c1nnn(-c2cc(Cl)ccc2Cl)c1C [CBK085973] | 104 | –
43 | CC1CCN(C(=S)NC2CC3CCC2C3)CC1 (stereo not drawn) [CBK085998] | 91.3 | –
44 | CC(C)(C)OC(=O)N1CCC(CNS(=O)(=O)c2cccc3cccnc23)CC1 [CBK086017] | 97.1 | –
45 | CC(C)(C)OC(=O)N1CCC(CNS(=O)(=O)c2cc(Cl)sc2Cl)CC1 [CBK086018] | 114 | –
46 | N#Cc1ccc(NC(=O)Nc2ccccc2)cc1 [CBK086045] | 87.8 | –
47 | O=C(Nc1ccc(Cl)cc1)Nc1ccc(OCC(O)CN2CCCCC2)cc1 (stereo not drawn) [CBK086101] | 99.4 | –
48 | N#Cc1cnn(-c2ccc(Cl)cc2Cl)c1N [CBK086125] | 89.2 | –

Row | SMILES | viability at 28.5 h, 10 µM [%] | viability at 28.5 h, 10 µM (bulk resorufin, single well) [%]
49 | CSCC(CSC)OC(=O)Nc1ccc(Cl)cc1 [CBK086154] | 93.9 | –
50 | O=C(O)CC1(CC(=O)N2CCN(C(c3ccccc3)c3ccccc3)CC2)CCCC1 [CBK086174] | 98.7 | –
51 | O=C(CC1C(=O)NCCN1C(=O)Nc1ccc(OCc2ccccc2)cc1)Nc1ccc(F)cc1 (stereo not drawn) [CBK086203] | 113 | –
52 | CCCc1cnc(N2CCN(S(=O)(=O)c3ccc(NC(C)=O)cc3Cl)CC2)nc1 [CBK086208] | 117 | –
53 | Clc1ccc(CNCc2cccnc2)cc1 [CBK086257C] | 108 | –
54 | CSc1nc(O)nc(-c2ccccc2)n1 [CBK086310] | 95.4 | –
55 | CN1C(=O)CC(c2ccccc2)Nc2ccccc21 (stereo not drawn) [CBK086373C] | – | 103
56 | Cc1cc(C)c(NC(N)=O)c(C)c1 [CBK086399] | 105 | –
57 | CCOC(=O)C1=C(C)NC(=O)NC1c1cccs1 (stereo not drawn) [CBK086430] | 78 | –
58 | O=C(CN1CCOCC1)Nc1ccc(Cl)cc1C(=O)c1ccccc1 [CBK086450] | 95.9 | –
59 | CCSc1nc(N)cc(O)n1 [CBK086474] | 90.5 | –
60 | Cc1cc2nc(-c3ccccc3)[nH]c2cc1C [CBK086484] | 80.1 | –
61 | OCCCNC(=S)Nc1ccc(Br)cc1Cl [CBK086487] | 82.3 | –
62 | CC1=CCC2C(=O)N(c3ccccc3)C(=O)C2C1 (stereo not drawn) [CBK086490] | 84.1 | –
63 | O=C1COCC(=O)N1c1ccc(I)cc1 [CBK086499] | 87.5 | –
64 | CC(C)(CC(=O)O)CC(=O)Nc1ccc(Cl)c(Cl)c1 [CBK086500] | 92.6 | –
65 | Cc1onc(-c2c(Cl)cccc2Cl)c1N(C)C(=O)N1CCCCC1 [CBK086555] | 109 | –
66 | CC(C)(C)OC(=O)NC1CCN(C(=O)Nc2ccc(OCc3ccccc3)cc2)CC1 [CBK086602] | 98.4 | –
67 | O=C1NC2(CCNCC2)Oc2ccc(-c3cccnc3)cc21 [CBK086611] | 95.4 | –
68 | CCOC(=O)c1cnc(SC)nc1NCCc1c[nH]cn1 [CBK086623] | 92.6 | –
69 | O=C(NCc1ccccc1)c1ccco1 [CBK086713] | 118 | –
70 | Cc1cc(OCC(O)CN(Cc2ccccc2)C(C)(C)C)ccc1[N+](=O)[O-] (stereo not drawn) [CBK086757] | 99.6 | –
71 | Cc1ccccc1C(=O)Nc1ccc(S(=O)(=O)Nc2nccs2)cc1 [CBK086797] | 89.4 | –
72 | O=C(COc1cccc2ccccc12)N/N=C/c1ccco1 [CBK086853] | 103 | –

Row | SMILES | viability at 28.5 h, 10 µM [%] | viability at 28.5 h, 10 µM (bulk resorufin, single well) [%]
73 | CC(C)(C)c1nnc(NC(=O)c2ccc(F)cc2)s1 [CBK086855] | 89 | –
74 | COc1cc2c(cc1OC)/C(=C(\C(=O)Nc1ccccc1)C(=O)N1CCCCC1)NC(C)(C)C2 [CBK087103] | 94.5 | –
75 | Cc1cc(C)n(-c2nc3c(c(=O)[nH]c(=O)n3C)n2CCc2ccccc2)n1 [CBK087129] | 90.2 | –
76 | O=C(O)CCNc1ccc(Br)cc1C(=O)O [CBK087259] | 96.9 | –
77 | Nc1nc2ccccc2n1CCOc1ccc(Cl)cc1 [CBK087352] | 85.9 | –
78 | COc1cccc(N2CCC(=O)N2)c1 [CBK087441] | 87 | –
79 | O=C1CC(c2ccc3c(c2)OCO3)c2ccc3ccccc3c2N1 (stereo not drawn) [CBK087469] | 95.8 | –
80 | Cc1c(Br)c(C(F)(F)F)nn1CC(=O)Nc1cc(C(F)(F)F)ccc1Cl [CBK087518] | 92.5 | –
81 | Cc1ccc(S(=O)(=O)Nc2ccccc2-c2nc3ccccc3c(=O)o2)cc1 [CBK087613] | 94.5 | –
82 | O=C(O)CCC(NC(=O)c1ccc(I)cc1)C(=O)O (stereo not drawn) [CBK087614] | 95.8 | –
83 | Cc1c(C)n(Cc2ccccc2)c2ccc(C(=O)OCCCN(C)C)cc12 [CBK087693] | 91.7 | –
84 | CCC(=O)NCCc1c[nH]c2ccc([N+](=O)[O-])cc12 [CBK088059] | 110 | –
85 | Cc1c(NC(=O)c2ccccc2Cl)c(=O)n(-c2ccccc2)n1C [CBK088068] | 105 | –
86 | O=c1[nH]c2ccccc2nc1-c1cc(Br)ccc1NCc1ccccc1 [CBK088071] | 106 | –
87 | CNC(=O)c1nn(Cc2ccc(Cl)cc2)c2ccccc12 [CBK088451] | – | 87.6
88 | O=C(O)c1nn(Cc2ccc(Cl)c(Cl)c2)c2ccccc12 [CBK088455] | – | 91.2
89 | CC(C)Nc1nccnc1-c1ccc(CO)cc1 [CBK088519] | 90.1 | –
90 | c1ccc(-c2nccnc2NCC2CC2)cc1 [CBK088539] | 88.4 | –
91 | COCCNc1nccnc1-c1ccccc1 [CBK088555] | 105 | –
92 | COCCNc1nccnc1-c1cnc(OC)nc1OC [CBK088558] | 109 | –
93 | CCNc1nccnc1-c1cnc(OC)nc1OC [CBK088587] | 93.9 | –
94 | CCNc1nccnc1-c1cccc(O)c1 [CBK088593] | 103 | –
95 | COc1ccccc1-c1nccnc1NCc1cccs1 [CBK088682] | 88 | –
96 | OCc1ccc(-c2nccnc2NCc2cccs2)cc1 [CBK088689] | 99.1 | –
